The values that follow come from patent publication US20140303185A1, “NOVEL POLYMORPHS OF VILAZODONE HYDROCHLORIDE” (ORCHID CHEMICALS & PHARMACEUTICALS LIMITED, priority 2013, published 2014).

Where a name gives a salt, the structure may show the parent alone.

The data set is described as follows: Storage stability of Vilazodone HCl polymorphic forms. In kind it is physicochemical. The note with it: for storage stability: at accelerated condition (tables 3 & 4).
Where [1] appears, read: Stability at 40 ± 2° C. & 75 ± 5% RH, Final.
The mark [2] stands for this setting: Stability at 40 ± 2° C. & 75 ± 5% RH, Final, hydrochloride.
Where [3] appears, read: Stability at 40 ± 2° C. & 75 ± 5% RH, Initial, hydrochloride.
Where [4] appears, read: Stability at 60 ± 2° C., Final, hydrochloride.
[5] abbreviates: Stability at 60 ± 2° C., Initial, hydrochloride.

For the molecule `N#Cc1ccc2[nH]cc(CCCCN3CCN(c4ccc5oc(C(N)=O)cc5c4)CC3)c2c1` [Form A, 1-[4-(5-cyanoindol-3-yl)butyl]-4-(2-carbamoylbenzofuran-5-yl) piperazine hydrochloride], the storage stability entry is given as “good storage stability”. For the same molecule, under setting [1], the Description entry was “white to off” and the Purity came out at 99.60%. Besides, under setting [2], the Moisture content worked out at 1.29%. Under setting [3], this molecule displayed a Moisture content of 1.10% and a Purity of 99.65%. In addition, the Description result (Stability at 60 ± 2° C., Final) is “white to off”. Further, under setting [4], the Moisture content worked out at 0.76% and the Purity is 99.65%. Besides, under setting [5], the Moisture content stood at 1.10% and the Purity amounted to 99.65%.
Turning to `N#Cc1ccc2[nH]cc(CCCCN3CCN(c4ccc5oc(C(N)=O)cc5c4)CC3)c2c1` [Form B, 1-[4-(5-cyanoindol-3-yl)butyl]-4-(2-carbamoylbenzofuran-5-yl) piperazine hydrochloride], the storage stability result is given as “good storage stability”. Further, under setting [1], the Description entry was “white to off” and the Purity is reported as 99.60%. Under setting [2], this molecule registered a Moisture content of 1.91%. Besides, under setting [3], the Description entry is given as “white to off”, the Moisture content amounted to 2.06% and the Purity worked out at 99.62%. The Description result (Stability at 60 ± 2° C., Final) is listed as “white to off”. Under setting [4], this molecule yielded a Moisture content of 0.81% and a Purity of 99.60%. Besides, under setting [5], the Description entry is recorded as “white to off”, the Moisture content is reported as 2.06% and the Purity came to 99.62%.
